Patent US9126056B2, “Method of promoting hair growth” (ENERGENESIS BIOMEDICAL CO., LTD., priority 2010, dated 2015)

System: human dermal papilla cells
Assay: Human dermal papilla cell proliferation test
Format: cell-based
Conditions: 0.002% in culture media; cell count at 12-60 hour; FIG. 1
Method: The promotion of cell proliferation by adenine was evaluated using human dermal papilla cells, compared with adenosine, and minoxidil under the following conditions, the results are shown in FIG. 1.
Determination of the proliferation of human dermal papilla cells in the culture media containing adenine, adenosine, and minoxidil. Supplements: 0.002% of adenine, adenosine, minoxidil.
• (1) Prepare 0.002% adenine, adenosine, minoxidil containing testing media using the hair follicle dermal papilla cell media (cat. No. 611-500, Cell applications, Inc). • (2) Seed the isolated human dermal papilla cells in 96-well culture plate with a density of 5,000 cells per well. Add 0.1 mL prepared culture media into individual well. • (3) At 12, 24, 36, 48 and 60 hour after cell seeding, visually count the total cell number using hemacytometer. • (4) Evaluate the result.

Question: Which “proliferation of human dermal papilla cells (in words)” value does the source give for `Nc1ncnc2nc[nH]c12` [adenine] here?
Answer: The value was “promotes the proliferation”.
